Results from US20090252754A1, “Vaccines containing the hiv tat protein as an adjuvant for the enhancement of cytotoxic t-cell responses” (priority 2003, published 2009).

Columns and labels:
[1] = system: proteasome subunits (α2, LMP2, LMP7, MECL1) in Jurkat cells; experiment: Western blot of proteasome subunits in Jurkat cells expressing or treated with Tat, Tat mutants or Tat peptides; assay type: cell-based, human; conditions: Jurkat cells treated for 24 h with 0.1 μg/ml
Procedure: Jurkat T cells expressing Tat or mutated Tat (referred to as Tat22, wherein a Cys at position 22 is mutated) have previously been described (1). Cells were cultured in a medium supplemented with 800 μg/ml neomycin (Sigma, St. Louise, […].).
Cells were lysed with glass beads as previously described (4). Supernatants were ultracentrifuged for 1 h at 100,000 g and loaded into an affinity column containing a matrix derivatised with the MCP21 mAb specific for the α2 subunit of the proteasome (Affinity, Exeter, UK). Proteasomes were eluted with 25 mM Tris-HCl pH 7.5 containing 2 M NaCl, and 0.5 ml fractions were collected. Homogeneity of the eluted material was confirmed by analysis of an aliquot by SDS 12% PAGE and Coomassie blue staining of the gel. Fractions containing proteasomes were combined and dialysed against 25 mM Tris-HCl pH 7.5. Protein concentration was determined using the BCA method (Pierce Chemical, Rockford, Ill.).
Equal amounts of proteins, or equal amounts of purified proteasomes, were loaded on a 12% SDS-PAGE and electro-blotted onto Protran nitrocellulose membranes (Schleicher & Schuell, Keene, Hampshire, USA). Blots were probed with Abs specific for α2, LMP2 LMP7, MECL1, and PA28α subunits (Affinity), and developed by enhanced chemi-luminescence (ECL, Amersham Pharmacia Biotech, Uppsala, SW).

[2] = system: HIV-1 Env peptide pools; experiment: Env-specific IFNγ Elispot on splenocytes of immunized mice; assay type: in vivo, BALB/c mice
Procedure: C57BL/6 mice (H-2^b) (Harlan Nossan, Udine, I) were immunized subcutaneously, in a single site in the back, with 25 μg of ovalbumin (Sigma) alone or in combination with native monomeric biologically active Tat protein (5 and 10 μg, respectively) in Freund's adjuvant (CFA for the first injection, and IFA for subsequent injections). BALB/c mice (H-2^d) (Harlan, Udine, Italy) were immunized subcutaneously, in a single site in the back, with 5 μg of HIV-1 Gag or Env proteins alone or in combination with 5 μg of native monomeric biologically active Tat protein or with the mutant Tatcys22 protein in Freund's adjuvant or in Alum. Each group was composed of 5 animals. Immunogens were given subcutaneously in 100 μl, at days 1, 14 and 28. Mice were sacrificed 10 days after the last boost (day 38). […]
Splenocytes were purified from spleens squeezed on filters (Cell Strainer, 70 μm, Nylon, Becton Dickinson). […] Cellular responses were also measured after in vitro re-stimulation. […]
Elispot (IFN-γ) was carried out using a commercially available kit provided by Becton Dickinson (murine IFNgamma ELISPOT Set; #551083), according to manufacturer's instructions. […] The spots were read using an Elispot reader (Elivis, Germany). The results are expressed as neat number of spot forming units (SFU)/10^6 cells: [mean number SFU of peptide treated wells minus mean number SFU of the negative control]. […]

[3] = system: ovalbumin epitopes SII, KVV, CFD on EL4 cells; experiment: Ova-specific CTL responses in vaccinated mice (cytotoxicity against peptide-pulsed EL4 cells); assay type: in vivo, C57BL/6 mice; conditions: fresh splenocytes; 25 μg ovalbumin alone or with 5 and 10 μg Tat, s.c., Freund's adjuvant
Procedure: Seven- to eight-week old female C57BL/6 mice (H-2^b) (Nossan) were injected with 25 μg ovalbumin (Sigma, St. Louis, Mo.) alone or in combination with native monomeric biologically active Tat protein (5 and 10 μg) and resuspended in degassed sterile PBS in Freund's adjuvant (CFA for the first injection, and IFA for subsequent injections). Control mice were injected with PBS alone in Freund's adjuvant. Samples (100 μl) were given by subcutaneous (s.c.) injection in one site in the back. Each experimental group consisted of five mice, and the experiment was repeated twice. Mice were boosted at day 24. Two weeks after the last injection, animals were anaesthetised i.p., as described above, and sacrificed to collect spleens. Mononuclear cells from individual spleens were purified as described above, pooled and tested in cytotoxic assay against peptide-pulsed EL4 cells.
C57BL/6 mice (H-2^b) (Harlan Nossan, Udine, I) were immunized subcutaneously, in a single site in the back, with 25 μg of ovalbumin (Sigma) alone or in combination with native monomeric biologically active Tat protein (5 and 10 μg, respectively) in Freund's adjuvant (CFA for the first injection, and IFA for subsequent injections). BALB/c mice (H-2^d) (Harlan, Udine, Italy) were immunized subcutaneously, in a single site in the back, with 5 μg of HIV-1 Gag or Env proteins alone or in combination with 5 μg of native monomeric biologically active Tat protein or with the mutant Tatcys22 protein in Freund's adjuvant or in Alum. Each group was composed of 5 animals. Immunogens were given subcutaneously in 100 μl, at days 1, 14 and 28. Mice were sacrificed 10 days after the last boost (day 38). During the course of the experiments, animals were controlled twice a week at the site of injection and for their general conditions (such as liveliness, food intake, vitality, weight, motility, sheen of hair). No signs of local nor systemic adverse reactions were ever observed in mice receiving the immunogens as compared to control or untreated mice. Animal use was according to European and institutional guidelines.

## 1-38: peptide covering amino acids 1-38 of the wild-type sequence of Tat (MEPVDPRLEPWKHPGSQPKTACTNCYCKKCCFHCQVCF; UniProt P04608 1-38, looked up, fragment)
[1]
  LMP2 expression in total cell lysates: no discernable effect

## 21-58: peptide covering amino acids 21-58 of the wild-type sequence of Tat (ACTNCYCKKCCFHCQVCFITKALGISYGRKKRRQRRRA; UniProt P04608 21-58, looked up, fragment)
[1]
  LMP2 expression in total cell lysates: no discernable effect

## 47-86: peptide of amino acids 47-86 of wild-type Tat (SEQ ID NO 285) (YGRKKRRQRRRPPQGSQTHQVSLSKQPTSQSRGDPTGPKE; Human immunodeficiency virus)
[1]
  LMP2 expression in total cell lysates: induced down-regulation

## Env: HIV-1 Env protein (gp120 SF162, SEQ ID NO 267) from NIH AIDS Reagent Program
[2]; fresh splenocytes, IFN-γ Elispot (data not shown)
  response of fresh splenocytes to Env-derived peptide pools: did not respond
[2]; vaccinated BALB/c mice
  number of Env-derived peptide pools responded to: 8

## ovalbumin
[3]
  recognition of EL4 target cells pulsed with cryptic CFD epitope: did not recognise
  recognition of EL4 target cells pulsed with immunodominant SII epitope: recognised
  recognition of EL4 target cells pulsed with subdominant KVV epitope: did not recognise
